Measured values: publication PMC6792352, “Limited Chemical Structural Diversity Found to Modulate Thyroid Hormone Receptor in the Tox21 Chemical Library” (Environmental Health Perspectives, 2019)
Counter-ions that a name gives are not always drawn.

experiment: in vitro; conditions: rat, gh3-tre-luc cells, AC50 (uM) modified / 1000

Compound | CC50 at 24 h
CC(C(O)c1ccccc1)N(C)CCOC(c1ccccc1)c1ccccc1 (centres unmarked) [Difeterol] | 15.1 µM
C#C[C@]1(O)CC[C@H]2[C@@H]3[C@H](C)CC4=C(CCC(=O)C4)[C@H]3CC[C@@]21C [Tibolone] | 51.8 µM
CC(=O)OCCCc1ccccc1 [3-Phenylpropyl acetate] | > 90 µM
CC(C)CCCCCCN [Isononanamine] | > 90 µM
COCCOCCOCCOCCOC [2,5,8,11,14-Pentaoxapentadecane] | > 90 µM
Oc1ccccc1/C=N/Cc1ccccc1 [Norletimol] | > 50 µM
CC/C=C\CCCCCCCCCCOC(C)=O [(Z)-11-Tetradecenyl acetate] | > 90 µM
COc1cc(NS(C)(=O)=O)ccc1Nc1c2ccccc2nc2ccccc12 [Amsacrine hydrochloride] | 0.432 µM
CCCCCCCCC(=O)OCC(C)OC(=O)CCCCCCCC (centres unmarked) [Propylene glycol dipelargonate] | > 100 µM
CN(C)C(=O)C(c1ccccc1)c1ccccc1 [Diphenamid] | > 90 µM
CCCCCOC(C)=O [Pentyl acetate] | > 90 µM
CCOC(=O)[C@H](CCc1ccccc1)N[C@@H](C)C(=O)N1CC2(C[C@H]1C(=O)O)SCCS2 [Spirapril hydrochloride] | > 50 µM
CC(=O)CCCCn1c(=O)c2c(ncn2C)n(C)c1=O [Pentoxifylline] | > 20 µM
NS(=O)(=O)Cc1noc2ccccc12 [Zonisamide] | > 50 µM
c1ccoc1 [Furan] | > 90 µM
CC[C@@H](CO)NCCN[C@@H](CC)CO [Ethambutol dihydrochloride] | > 20 µM
CCCCCCCCCCCCCCCCBr [1-Bromohexadecane] | > 30 µM
CC(CCc1ccc(O)cc1)NCC(O)c1ccc(O)cc1 (centres unmarked) [Ractopamine hydrochloride] | > 50 µM

Compound | CC50 at 24 h
COc1ccc2[nH]c([S+]([O-])Cc3ncc(C)c(OC)c3C)nc2n1 (centres unmarked) [Tenatoprazole] | 41.8 µM
OCC(O)[C@@H](O)[C@H](O)[C@H](O)CO[C@H]1O[C@H](CO)[C@@H](O)[C@H](O)[C@H]1O (some centres unmarked) [Isomalt] | > 90 µM
O=C(N[C@H]1CN2CCC1CC2)c1cc2ccoc2cn1 [PHA-00543613] | > 90 µM
COc1cc(CCN)cc(OC)c1OC [Mescaline hydrochloride] | > 100 µM
CCCCOC(=O)c1ccc(N)cc1 [Butyl 4-aminobenzoate] | > 50 µM
CCCOc1ccccc1-c1nc2nn[nH]c2c(=O)[nH]1 [Zaprinast] | > 50 µM
CCCCCCCC(=O)CC[C@@H]1[C@@H](C/C=C\CCCC(=O)OC(C)C)[C@@H](O)C[C@H]1O [Unoprostone isopropyl ester] | 18 µM
C=CCOCC(CC)(CO)COCC=C [2,2-Bis[(prop-2-en-1-yloxy)methyl]butan-1-ol] | > 90 µM
CN(C)C=O [N,N-Dimethylformamide] | > 90 µM
COCN(COC)c1nc(N(COC)COC)nc(N(COC)COC)n1 [Hexa(methoxymethyl)melamine] | > 90 µM
CC(Cl)C(Cl)Cl (centres unmarked) [1,1,2-Trichloropropane] | > 90 µM
N[C@@H](C(=O)N[C@@H]1C(=O)N2C(C(=O)O)=C(Cl)CC[C@H]12)c1ccccc1 [Loracarbef monohydrate] | > 50 µM
c1ccc2c(c1)CCc1ccccc1N2 [10,11-Dihydro-5H-dibenz[b,f]azepine] | > 90 µM
C=CCNCC=C [Diallylamine] | > 90 µM
Clc1nnc(Cl)c2ccccc12 [1,4-Dichlorophthalazine] | > 90 µM
c1ccc2c(CC3=NCCN3)cccc2c1 [Naphazoline hydrochloride] | > 50 µM
CCCCS [1-Butanethiol] | > 90 µM
Clc1ccccc1CN1CCc2sccc2C1 [Ticlopidine] | 21.6 µM

same assay, conditions: rat, gh3-tre-luc cells, AC50 (uM) modified / 1000, Tox21_110001=Tox21_111223; viability, 1 nM T3 present, 24 h

Compound | CC50 at 24 h
C[C@]12CC[C@H](OS(=O)(=O)O)CC1=CC[C@@H]1[C@@H]2CC[C@]2(C)C(=O)CC[C@@H]12 [Sodium prasterone sulfate dihydrate] | > 50 µM

same assay, conditions: rat, gh3-tre-luc cells, AC50 (uM) modified / 1000, Tox21_110001=Tox21_113271; viability, 1 nM T3 present, 24 h

Compound | CC50 at 24 h
CCOC(=O)NC(C)(C)Cc1ccc(Cl)cc1 [Cloforex] | > 50 µM
